Series [1] deals with Recombinant human NEP (Homo sapiens, UniProt P08473). The experiment in a line: in vitro NEP cleavage assay (disappearance of non-cleaved CNP variant). The note with it: for NEP Cleavage (t1/2, min): 100 uM peptide, 1 ug/mL NEP, 0.1 M Tris pH 7, 37° C., adjusted t1/2, CNP22 normalized to 80 min. A digest of the protocol: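 Recombinant human NEP (1 ug/mL final) incubated with 100 uM CNP variant in 0.1 M Tris, pH 7, at 37° C for various times, then quenched with EDTA (10 mM final) and heat. Samples reduced and analysed by HPLC and mass spectrometry. Half-life derived from loss of intact variant over time.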

The target of series [2] is T1, NPR-B (Mus musculus, UniProt Q6VVW5).
T1 construct: Murine NIH3T3 cells express endogenously the CNP signaling receptor, NPR-B; endogenous in cells; host or cells: NIH3T3
T1 sequence (Q6VVW5 17-1047): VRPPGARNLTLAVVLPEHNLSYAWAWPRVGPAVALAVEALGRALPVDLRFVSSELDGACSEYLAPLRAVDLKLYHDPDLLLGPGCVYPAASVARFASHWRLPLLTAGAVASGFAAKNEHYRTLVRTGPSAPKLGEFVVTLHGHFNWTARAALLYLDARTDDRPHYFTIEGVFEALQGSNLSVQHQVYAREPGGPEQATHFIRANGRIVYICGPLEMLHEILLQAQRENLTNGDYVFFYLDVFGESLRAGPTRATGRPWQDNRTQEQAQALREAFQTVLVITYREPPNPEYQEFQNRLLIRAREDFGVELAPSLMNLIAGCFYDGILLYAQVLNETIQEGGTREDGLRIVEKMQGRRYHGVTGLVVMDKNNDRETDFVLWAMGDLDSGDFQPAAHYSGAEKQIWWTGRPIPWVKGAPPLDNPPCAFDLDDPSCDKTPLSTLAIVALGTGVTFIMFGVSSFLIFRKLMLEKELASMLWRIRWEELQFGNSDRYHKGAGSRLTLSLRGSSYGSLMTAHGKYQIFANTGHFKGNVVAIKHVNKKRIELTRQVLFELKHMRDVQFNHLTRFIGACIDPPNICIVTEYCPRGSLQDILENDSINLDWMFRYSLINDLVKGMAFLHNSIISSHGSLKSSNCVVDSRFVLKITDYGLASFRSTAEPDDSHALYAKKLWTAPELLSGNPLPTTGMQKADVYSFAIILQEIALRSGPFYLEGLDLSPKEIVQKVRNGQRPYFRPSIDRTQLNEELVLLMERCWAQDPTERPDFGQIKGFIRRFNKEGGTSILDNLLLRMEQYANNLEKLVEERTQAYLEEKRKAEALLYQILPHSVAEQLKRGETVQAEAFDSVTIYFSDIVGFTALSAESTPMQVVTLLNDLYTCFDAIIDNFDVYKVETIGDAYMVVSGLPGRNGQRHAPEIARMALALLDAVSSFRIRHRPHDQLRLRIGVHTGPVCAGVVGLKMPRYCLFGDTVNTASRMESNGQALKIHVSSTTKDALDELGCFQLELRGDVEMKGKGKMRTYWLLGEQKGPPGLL
The experiment in a line: stimulation of cGMP production in NIH3T3 cells. It counts as cell-based, murine. To be noted: normalized to cell number and cGMP production in the presence of 1 uM wtCNP22; for cGMP Response rel. to 1 uM CNP22, 10 nM: NIH3T3 cells exposed to 10 nM peptide; for cGMP Response rel. to 1 uM CNP22, 1 uM: NIH3T3 cells exposed to 1 uM peptide. The method, then:
To determine the functional activity of CNP variants, the production of cGMP was measured in NIH3T3 cells exposed to the CNP variants. Murine NIH3T3 cells express endogenously the CNP signaling receptor, NPR-B, which shares 98% protein sequence identity with human NPR-B. NIH3T3 cells were cultured in high glucose Dulbecco's Modified Eagle Medium supplemented with 10% fetal calf serum and antibiotics at 37° C. with 5% CO2). Twenty four to 48 hours prior to signaling, cells were passaged to 12-well plates with a density of 2-5×10^5 cells per well at the time of the assay. CNP variants were resuspended in 1 mM HCl to a stock concentration of 1 mg/mL (455 uM for wtCNP22) and subsequently diluted to a 30 uM working stock solution with phosphate-buffered saline (PBS). Ten-fold serial dilutions were prepared in phosphate-buffered saline. Culture medium was removed from the cells and replaced with 0.4 mL PBS/Dulbecco's modified Eagle medium (50/50, v/v) containing 0.75 mM isobutylmethylxanine. Plates were incubated at 37° C., 5% CO2 for 15 minutes before addition of 0.2 mL CNP variant in PBS and continued incubation at 37° C. for 15 minutes. Reactions were stopped by the addition of 0.2 mL lysis buffer supplied with the CatchPoint cGMP assay kit (Molecular Devices), and cGMP production was determined with the CatchPoint cGMP Assay (Molecular Devices). All stimulation experiments were performed in duplicate.
Tables 1-4 summarize the ability of CNP variants having backbone or side chain modifications, amino acid substitutions, N-terminal amino acid extensions, and/or N-terminal PEGylation, respectively, to stimulate cGMP production in NIH3T3 cells. In all four tables, the values for cGMP production in NIH3T3 cells exposed to 10 nM or 1 uM CNP variant are normalized to cell number and cGMP production in the presence of 1 uM wtCNP22.

Series [3] concerns the target T2, NPR-B (natriuretic peptide receptor B), murine, expressed endogenously on NIH3T3 cells (murine, UniProt Q6VVW5 17-1047).
T2 sequence (looked up): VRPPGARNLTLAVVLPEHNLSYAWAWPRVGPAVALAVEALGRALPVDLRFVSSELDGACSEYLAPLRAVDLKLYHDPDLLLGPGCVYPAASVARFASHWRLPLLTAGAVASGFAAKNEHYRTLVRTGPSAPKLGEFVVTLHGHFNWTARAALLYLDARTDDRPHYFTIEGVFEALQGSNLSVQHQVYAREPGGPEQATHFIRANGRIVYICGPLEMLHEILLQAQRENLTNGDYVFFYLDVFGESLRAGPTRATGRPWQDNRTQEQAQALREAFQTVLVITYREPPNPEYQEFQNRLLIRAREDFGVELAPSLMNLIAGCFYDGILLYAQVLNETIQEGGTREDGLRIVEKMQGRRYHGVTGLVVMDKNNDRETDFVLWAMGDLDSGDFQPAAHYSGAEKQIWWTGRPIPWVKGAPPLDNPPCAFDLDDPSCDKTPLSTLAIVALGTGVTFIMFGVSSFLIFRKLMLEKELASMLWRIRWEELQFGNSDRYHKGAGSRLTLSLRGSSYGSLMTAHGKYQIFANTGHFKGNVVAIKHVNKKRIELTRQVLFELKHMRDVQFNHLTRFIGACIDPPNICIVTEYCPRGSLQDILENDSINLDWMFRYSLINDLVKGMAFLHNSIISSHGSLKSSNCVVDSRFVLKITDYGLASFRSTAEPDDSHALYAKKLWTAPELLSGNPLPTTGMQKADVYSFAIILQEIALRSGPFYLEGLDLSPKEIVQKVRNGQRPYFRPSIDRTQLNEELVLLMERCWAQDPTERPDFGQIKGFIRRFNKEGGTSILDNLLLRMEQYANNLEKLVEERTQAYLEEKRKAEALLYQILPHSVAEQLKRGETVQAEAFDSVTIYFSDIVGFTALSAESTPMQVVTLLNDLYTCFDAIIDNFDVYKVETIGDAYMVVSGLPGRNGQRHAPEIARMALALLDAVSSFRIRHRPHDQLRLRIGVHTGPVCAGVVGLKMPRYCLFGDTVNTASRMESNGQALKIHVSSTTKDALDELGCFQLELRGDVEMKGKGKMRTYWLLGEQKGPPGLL
The experiment in a line: cell-based or functional assay.

Recombinant human NEP, sequence (P08473 whole entry): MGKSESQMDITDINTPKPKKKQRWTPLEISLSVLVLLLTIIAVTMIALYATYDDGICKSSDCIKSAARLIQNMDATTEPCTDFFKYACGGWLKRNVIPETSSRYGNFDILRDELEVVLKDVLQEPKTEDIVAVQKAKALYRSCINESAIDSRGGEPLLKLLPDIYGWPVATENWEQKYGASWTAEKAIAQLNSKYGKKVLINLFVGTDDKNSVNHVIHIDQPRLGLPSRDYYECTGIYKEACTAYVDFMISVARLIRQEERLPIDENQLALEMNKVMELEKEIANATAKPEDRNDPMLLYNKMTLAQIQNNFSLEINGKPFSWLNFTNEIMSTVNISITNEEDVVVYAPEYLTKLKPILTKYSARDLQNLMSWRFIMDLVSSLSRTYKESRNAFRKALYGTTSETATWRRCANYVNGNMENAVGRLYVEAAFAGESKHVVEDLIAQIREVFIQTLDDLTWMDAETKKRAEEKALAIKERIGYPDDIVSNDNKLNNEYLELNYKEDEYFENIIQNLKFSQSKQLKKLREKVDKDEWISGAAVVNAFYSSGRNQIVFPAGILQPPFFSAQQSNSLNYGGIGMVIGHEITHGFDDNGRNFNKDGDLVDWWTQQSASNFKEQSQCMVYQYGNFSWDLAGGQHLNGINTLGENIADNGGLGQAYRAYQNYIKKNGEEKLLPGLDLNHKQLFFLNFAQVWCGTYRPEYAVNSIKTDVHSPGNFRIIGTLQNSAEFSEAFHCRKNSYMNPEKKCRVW

`CC[C@H](C)[C@@H]1NC(=O)[C@H](CCCNC(=N)N)NC(=O)[C@H](CC(=O)O)NC(=O)[C@H](CC(C)C)NC(=O)[C@H](CCCCN)NC(=O)[C@H](CC(C)C)NC(=O)CNC(=O)[C@H](Cc2cccc(Cl)c2)NC(=O)[C@@H](NC(=O)CNC(=O)[C@H](CCCCN)NC(=O)[C@H](CO)NC(=O)[C@H](CC(C)C)NC(=O)CN)CSSC[C@@H](C(=O)O)NC(=O)CNC(=O)[C@H](CC(C)C)NC(=O)CNC(=O)[C@H](CO)NC(=O)[C@H](CCSC)NC(=O)[C@H](CO)NC(=O)CNC1=O` [Analog G]: in series [1], the “resistance to cleavage at the Cys6-Phe7 bond relative to wtCNP22” value was “resistance or improved resistance” and the “NEP Cleavage (t1/2, min)” value was determined as 135 min. In addition, in series [1] (human), the “half-life compared to those for Analogs A, B, F and H” value is recorded as 1.5-2.5 fold; the “half-life in comparison to wtCNP22” value is listed as “about 1.5 times”. Besides, in series [2], the “cGMP Response rel. to 1 uM CNP22, 10 nM” value was 17 and the “cGMP Response rel. to 1 uM CNP22, 1 uM” value stood at 93.
For `CC[C@H](C)[C@@H]1NC(=O)[C@H](CCCNC(=N)N)NC(=O)[C@H](CC(=O)O)NC(=O)[C@H](CC(C)C)N(C)C(=O)[C@H](CCCCN)NC(=O)[C@H](CC(C)C)N(C)C(=O)CNC(=O)[C@H](Cc2ccccc2)NC(=O)[C@@H](NC(=O)CNC(=O)[C@H](CCCCN)NC(=O)[C@H](CO)NC(=O)[C@H](CC(C)C)NC(=O)CN)CSSC[C@@H](C(=O)O)NC(=O)CNC(=O)[C@H](CC(C)C)NC(=O)CNC(=O)[C@H](CO)NC(=O)[C@H](CCSC)NC(=O)[C@H](CO)NC(=O)CNC1=O` [Analog M, CNP22, N-methyl-L9, N-methyl-L11], in series [1], the “resistance to NEP cleavage (in words)” value is reported as “greatest resistance to NEP cleavage” and the “NEP Cleavage (t1/2, min)” value is >>160 min. In addition, in series [2], the “cGMP Response rel. to 1 uM CNP22, 10 nM” value was found to be 1 and the “cGMP Response rel. to 1 uM CNP22, 1 uM” value came to 11.
On to `CC[C@H](C)[C@@H]1NC(=O)[C@H](CCCNC(=N)N)NC(=O)[C@H](CC(=O)O)NC(=O)[C@H](CC(C)C)NC(=O)[C@H](CCCCN)NC(=O)[C@H](CC(C)C)N(C)C(=O)CNC(=O)[C@H](Cc2ccccc2)NC(=O)[C@@H](NC(=O)CNC(=O)[C@H](CCCCN)NC(=O)[C@H](CO)NC(=O)[C@H](CC(C)C)NC(=O)CN)CSSC[C@@H](C(=O)O)NC(=O)CNC(=O)[C@H](CC(C)C)N(C)C(=O)CNC(=O)[C@H](CO)NC(=O)[C@H](CCSC)NC(=O)[C@H](CO)NC(=O)CNC1=O` [Analog K, CNP22, N-methyl-L9, N-methyl-L20], for which the “NEP Cleavage (t1/2, min)” value in series [1] is 80 min. In series [2], the “cGMP Response rel. to 1 uM CNP22, 10 nM” value is recorded as 1 and the “cGMP Response rel. to 1 uM CNP22, 1 uM” value is given as 1.

B1: CNP22 (wild-type human CNP-22) (peptide)
peptide: GLSKGCFGLKLDRIGSMSGLGC
With B1, in series [3], the “cGMP response rel. to 1 uM CNP22; 10 nM peptide, NIH3T3 cells” value is 46 rel. to 1 uM CNP22 (100) and the “cGMP response rel. to 1 uM CNP22; 1 uM peptide, NIH3T3 cells” value is 100 rel. to 1 uM CNP22 (100).

B2: CNP22, N-methyl-F7 (methylated amide) (peptide)
peptide: GLSKGCXGLKLDRIGSMSGLGC
modifications: N-methyl-Phe at 7
Consider B2, for which, in series [3], the “cGMP response rel. to 1 uM CNP22; 10 nM peptide, NIH3T3 cells” value is 2 rel. to 1 uM CNP22 (100) and the “cGMP response rel. to 1 uM CNP22; 1 uM peptide, NIH3T3 cells” value was 38 rel. to 1 uM CNP22 (100).

Values taken from USRE48267E1, “Variants of C-type natriuretic peptide” (priority 2009, dated 2020).
